Reference: publication PMC8343194 (Acta Pharmaceutica Sinica. B, 2021)
Where two headings read alike, the source gives them in different places. One block for each compound: values may come before it.

Key:
MDA435/LCC6 MDR1 cells = experiment: Sulforhodamine B cytotoxicity / MDR reversal assay, ABCB1-transfected cells; assay type: cell-based, human; conditions: for IC50: Homo sapiens
[1] = Pharmacokinetic study of paclitaxel with oral type I POPs; assay type: in vivo, Sprague–Dawley rats
MDA435/LCC6 cells = experiment: Sulforhodamine B cytotoxicity assay, parental cells; assay type: cell-based; conditions: Homo sapiens
[2] = compound at 0.4 μmol/L, MDA435/LCC6 MDR1
[3] = Sprague-Dawley, rat, plasma, iv, 6 mg/kg

SMILES: C/C=C/C[C@@H](C)C(=O)[C@H]1C(=O)N[C@@H](C(C)C)C(=O)N(C)CC(=O)N(C)[C@@H](CC(C)C)C(=O)N[C@@H](C(C)C)C(=O)N(C)[C@@H](CC(C)C)C(=O)N[C@@H](C)C(=O)N[C@H](C)C(=O)N(C)[C@@H](CC(C)C)C(=O)N(C)[C@@H](CC(C)C)C(=O)N(C)[C@@H](C(C)C)C(=O)N1C [PSC833, valspodar]
Fold change of doxorubicin IC50 (alone/combination) (MDA435/LCC6 MDR1 cells; [2]): 11 | Fold change of paclitaxel IC50 (alone/combination) (MDA435/LCC6 MDR1 cells; [2]): 59

brain accumulation of paclitaxel ([1]; 24 h after last dose, 6 consecutive days): no brain accumulation of paclitaxel | half-life ([1]; Sprague-Dawley, rat, plasma, intravenous): 252 ± 18 min | clearance [1, 3]: 91.7 mL/min/kg | half-life [1, 3]: 192 ± 42 min | Ctrough of paclitaxel after the last dose ([1]; paclitaxel iv 6 mg/kg/day ± type I POPs po 50 mg/kg/day for 6 consecutive days): 15.8 ± 6.6 nmol/L
SMILES: CC(=O)O[C@H]1C(=O)[C@@]2(C)[C@H]([C@H](OC(=O)c3ccccc3)[C@]3(O)C[C@H](OC(=O)[C@H](O)[C@@H](NC(=O)c4ccccc4)c4ccccc4)C(C)=C1C3(C)C)[C@]1(OC(C)=O)CO[C@@H]1C[C@@H]2O [Paclitaxel, paclitaxel]
behavior and body weight of rats ([1]; 6 consecutive days of paclitaxel alone or with type I POPs mixture): no abnormality in behavior and no significant weight losses | IC50 (MDA435/LCC6 cells; MDA-435/LCC6, read-out: IC50 of paclitaxel): 1.36 ± 0.14 nM | IC50 (MDA435/LCC6 MDR1 cells; read-out: IC50 of paclitaxel): 120 ± 9.44 nM

SMILES: COc1cccc2c1C(=O)c1c(O)c3c(c(O)c1C2=O)C[C@@](O)(C(=O)CO)C[C@@H]3O[C@H]1C[C@H](N)[C@H](O)[C@H](C)O1 [Doxorubicin, doxorubicin]
IC50 (MDA435/LCC6 cells; MDA-435/LCC6, read-out: IC50 of doxorubicin): 76 ± 8 nM | IC50 (MDA435/LCC6 MDR1 cells; read-out: IC50 of doxorubicin): 695 ± 40 nM
